Source: patent US8206764B2, “Black soybean hull extract, method for obtaining, and use thereof” (Beijing Gingko-Group Biological Technology Co., Ltd., priority 2006, dated 2012)

Assay: clearance of hydroxyl free radicals, orthophenanthroline Fe2+ oxidation method
Type: biochemical
Set-up: Clearance rate of •OH (d): unit not given here
Settings: for Clearance rate of •OH (d): n = 5
From the text: Materials and methods-test drug and reagent: Extract of black soybean hull A (containing cyanidin 12.52%, catechin 13.50%, and OPC 54.01%). Orthophenanthroline, hydrogen peroxide, ascorbic acid (VC), and FeSO4.7H2O were all analytical pure reagents made in China. Materials and Methods-instruments: An LSY constant temperature water bath was obtained from a Beijing medical instrument manufacturer, and a UV-2000 spectrophotometer was from […], Shanghai Instrument Co., Ltd.). Test method-reagent preparation: Reagents included 0.1% H2O[…]), a 5 mmol/L anhydrous ethanol solution of orthophenanthroline, 0.75 mmol/L FeSO4, a 0.2 mmol/L phosphoric acid buffer solution (PBS; pH=7.4), BSHE A, prepared with double distilled water and diluted to concentrations of 0.5, 0.25, 0.125, and 0.0625 mg/ml, and ascorbic acid, prepared at concentrations of 4, 2, 1, and 0.5 mg/ml with double distilled water. Test method-measuring hydroxyl free radicals: The clearing of hydroxyl free radicals was tested using an orthophenanthrolin Fe^2+ oxidation method to further evaluate the anti-oxidation capacity of BSHE A. (1) 2 ml PBS, the test drug at the concentrations listed above, and 1 ml ascorbic acid were sequentially added to a disposable 10 ml polyethylene test tube and shaken. 0.35 ml of 5 mmol/L orthophenanthroline solution and 1 ml 0.75 mmol/L FeSO4 were added and mixed fully. 1 ml of 0.1% H2O2 was added, and the tube was vibrated for 1 minute. […] (2) The 1 ml of test drug in (1) was replaced with 1 ml deionized water, while the other conditions were the same as in (1). The absorbency value Ab was measured. (3) The 1 ml H2O2 in (2) was replaced with 1 ml deionized water, while the other conditions were the same as in (2). The absorbency value Ac was measured. (4) The clearance rate (d) of .OH by the test drug and the positive comparison was calculated according to the following equation: [formula] The total volume of reaction was 5.35 ml. The final concentrations of ascorbic acid thus were 0.748 mg/ml, 0.374 mg/ml, 0.187 mg/ml, and 0.093 mg/ml, while the final concentrations of BSHE A were 0.093 mg/ml, 0.047 mg/ml, 0.023 mg/ml, and 0.012 mg/ml. Five samples were tested in each group. The clearance rate of .OH was calculated individually and then average values were calculated.

O=C1O[C@H]([C@@H](O)CO)C(O)=C1O [ascorbic acid]
Clearance rate of •OH (d) (final concentration 0.093 mg/ml): 0.212 ± 2.47
Clearance rate of •OH (d) (final concentration 0.187 mg/ml): 4.21 ± 1.32
Clearance rate of •OH (d) (final concentration 0.374 mg/ml): 50.32 ± 4.29
Clearance rate of •OH (d) (final concentration 0.748 mg/ml): 91.29 ± 3.26
IC50 of hydroxyl free radical clearance (from fitted line): 401.4 µg/mL
